These are literature values, as cited in US11549142B2, “CETP inhibitors for therapeutic use” (Hoffmann-La Roche Inc., priority 2013, dated 2023).

SMILES strings stand for the structures. Like-named read-outs stand apart in the source and are kept apart here.

For series [1] the following is noted: humans; de Grooth et al.; cited from earlier work.
For series [2] the following is noted: rabbits, Okamoto et al., cited from earlier work.
In series [3] the target is T1, CETP (Oryctolagus cuniculus, UniProt P22687).
T1 construct: host or cells: rabbits (endogenous plasma CETP)
T1 sequence (P22687 2-497): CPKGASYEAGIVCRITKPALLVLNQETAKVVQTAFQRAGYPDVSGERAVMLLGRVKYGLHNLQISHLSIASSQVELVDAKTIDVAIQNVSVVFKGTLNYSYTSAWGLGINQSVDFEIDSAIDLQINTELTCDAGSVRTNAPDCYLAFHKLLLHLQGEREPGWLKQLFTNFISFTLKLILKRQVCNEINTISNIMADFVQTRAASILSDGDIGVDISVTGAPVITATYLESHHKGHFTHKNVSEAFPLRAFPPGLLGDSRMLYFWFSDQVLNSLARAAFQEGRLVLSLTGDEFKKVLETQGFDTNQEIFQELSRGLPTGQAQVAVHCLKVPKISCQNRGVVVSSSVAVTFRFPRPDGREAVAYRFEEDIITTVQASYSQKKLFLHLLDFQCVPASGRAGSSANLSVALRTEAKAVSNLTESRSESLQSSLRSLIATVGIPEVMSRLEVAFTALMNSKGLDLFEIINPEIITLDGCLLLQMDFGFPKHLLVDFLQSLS
The conditions noted are these: rabbits; Shinkai et al., Kobayashi et al., Okamoto et al.; cited from earlier work.

In series [4] the target is T2, CETP (Homo sapiens, UniProt P11597).
T2 construct: host or cells: humans treated with the compound (endogenous plasma CETP)
T2 sequence (P11597 18-493): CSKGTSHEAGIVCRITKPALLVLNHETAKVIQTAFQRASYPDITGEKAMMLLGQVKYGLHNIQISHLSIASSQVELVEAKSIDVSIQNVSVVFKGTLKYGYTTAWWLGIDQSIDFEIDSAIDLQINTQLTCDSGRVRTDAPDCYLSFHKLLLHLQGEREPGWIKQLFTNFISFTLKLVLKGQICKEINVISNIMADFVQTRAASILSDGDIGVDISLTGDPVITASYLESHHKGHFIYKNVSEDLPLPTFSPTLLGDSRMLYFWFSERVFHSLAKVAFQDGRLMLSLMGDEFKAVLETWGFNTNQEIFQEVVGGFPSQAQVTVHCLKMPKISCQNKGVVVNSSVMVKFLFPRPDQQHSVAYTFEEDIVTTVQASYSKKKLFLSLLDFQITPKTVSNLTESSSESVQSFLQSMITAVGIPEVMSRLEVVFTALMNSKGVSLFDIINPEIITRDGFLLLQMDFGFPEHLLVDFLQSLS
Conditions: humans; de Grooth et al.; cited from earlier work.

As to `CCC(CC)CC1(C(=O)Nc2ccccc2SC(=O)C(C)C)CCCCC1` [dalcetrapib, thioisobutyric acid S-(2-{[1-(2-ethyl-butyl)-cyclohexanecarbonyl]-amino}-phenyl) ester], the LDL cholesterol entry in series [1] and in series [2] was “decrease LDL cholesterol” in each case. Further, the “plasma HDL cholesterol” value was “increase plasma HDL cholesterol” in series [1] and “increase plasma HDL cholesterol” in series [2] (Shinkai et al., Kobayashi et al.). The CETP activity entry in series [3] and in series [4] was “inhibitor of CETP activity” in each case.
